Positions of bridges follow the written chain, without caps; N, C: chain ends. Non-standard residues stand in square brackets, D forms with d. No end group written: not given here. pGlu = O=C1CC[C@@H](C(=O)O)N1
Assays:
[1] = type: physicochemical
Procedure: Purified mO1 (40 μg) was dissolved in water and incubated at 100 °C for 1 h. A linear peptide RV-14 ([…]) synthesized in our laboratory was used as a control. After incubation, the samples were subjected to RP-UPLC to assess the presence and extent of degradation.

[2] = Proteolytic enzyme stability assay, pepsin; type: in vitro ADME; conditions: isolated enzyme pepsin, 100 mM sodium citrate pH 4.5, 37 °C, peptide:enzyme 20:1 (w/w), RP-UPLC area under the curve, MALDI-TOF MS, read-out: peptide remained intact after pepsin treatment
Procedure: (§1) Purified mO1 was incubated at 37 °C with pepsin or carboxypeptidase A in 100 mM sodium citrate (pH 4.5) or 50 mM Tris–HCl with 100 mM NaCl (pH 7.5) at a final peptide to enzyme ratio (w/w) of 20:1 and 50:1, respectively. At each time point (0, 2, 4, 6 h) 50 μL of the sample was injected into the UPLC system, and the mass of peaks collected were analyzed by MALDI-TOF MS. A linear peptide WV-14 (WRLYRGRLYRRNHV) synthesized in-house was used as a control.

Vero cells = assay: Cytotoxicity assay (PrestoBlue cell viability); type: cell-based; conditions: concentrations up to 100 μM (1–100 μM), 24 h, DMEM 10% FBS, absorbance 570 nm
Procedure: The cytotoxic effect of morintide, mO1 (1–100 μM) was tested on Vero cells (5 × 10^4 cells/ml) in Dulbecco’s modified Eagle’s medium (DMEM) supplemented with 10% fetal bovine serum (FBS) and 1% penicillin/streptomycin (PS). Vero cells (ATCC CCL-81) were a kind gift from Dr Liu Ding Xiang (School of Biological Sciences, Nanyang Technological University, Singapore). After 24 h of incubation, 10 μl of PrestoBlue® Cell Viability Reagent (Invitrogen, USA) was added to the wells and incubated at 37 °C for 1 h. After incubation, the absorbance was measured at 570 nm using a microplate reader.

[3] = Chitin binding assay with chitin beads
Procedure: Purified morintide (mO1) was incubated with chitin beads (New England Biolabs, Massachusetts, […]) in chitin binding buffer (140 mM NaCl, 10 mM Tris EDTA 1 mM; pH 8.0; then, 0.1% (v/v) Tween 20 was added) at 4 °C for 4 h. At each time point, the beads were centrifuged at 12,000 g for 1 min and the absorbance of the supernatant was read at 280 nm to assess binding. Elution of the bound peptide was performed using two methods. In the first method, 0.5 M acetic acid and heating at 100 °C for 30 min and 1 h was used, and in the second method, four elution buffers (10 mM Tris, 1 mM EDTA, 0.1% (v/v) Tween 20; pH 8.0) with increasing concentration of sodium chloride (300 mM, 500 mM, 700 mM, and 1 M) were used. Reduced and alkylated mO1 was used as a control. Supernatants were further analyzed by UPLC and MALDI-TOF to assess binding and elution.

[4] = Proteolytic enzyme stability assay, carboxypeptidase A; type: in vitro ADME; conditions: isolated enzyme carboxypeptidase, 50 mM Tris-HCl with 100 mM NaCl pH 7.5, 37 °C, peptide:enzyme 50:1 (w/w), RP-UPLC area under the curve, MALDI-TOF MS, read-out: peptide remained intact after carboxypeptidase A treatment
Procedure: as §1

[5] = tested on: Alternaria alternata (CICC 2465); assay: Disc diffusion assay; type: cell-based; conditions: 17.5 to 70 μg mO1 on 6 mm discs, PDA plates, 24 h at 25 °C
Procedure: (§2) The susceptibility of seven fungal strains obtained from the China Center of Industrial Culture Collection (CICC), namely, Curvularia lunata (CICC 40301), Fusarium oxysporum (CICC 2532), Aspergillus niger (CICC 2089), Verticillium dahilae (CICC 2534), Rhizoctonia solani (CICC 40259), Alternaria alternata (CICC 2465) and Alternaria brassiciola (CICC 2646) to mO1 (17.5 to 70 μg) was tested using a disc diffusion assay. Potato dextrose agar (PDA) plates were used to grow C. lunata, R. solani, V. dahilae A. alternata, and A. brassiciola (A. niger was grown on malt extract (ME) agar plates) at 25 °C. When sufficient growth was observed, the mycelia were harvested by punching a hole in the growing fungi and transferring it to a new agar plate. The plate was incubated at 25 °C for 48 h to 72 h to allow formation of a radial mycelial colony. 6 mm discs impregnated with 20 μL of mO1 were placed equidistant (1 cm) from the growing ends of the mycelia and incubated for 24 h at 25 °C. Deionized water was used as a negative control. Formation of arc-shaped inhibition zones indicated susceptibility to mO1.

[6] = tested on: Alternaria brassiciola (CICC 2646); assay: Disc diffusion assay; type: cell-based; conditions: 17.5 to 70 μg mO1 on 6 mm discs, PDA plates, 24 h at 25 °C
Procedure: as §2

Substance | peptide degraded on heating [1] | remaining at 6 h [2] | cytotoxic effect on Vero cells (Vero cells) | time for elution from chitin beads with 0.5 M acetic acid with heating at 100 °C ([3]; 0.5 M acetic acid, 100 °C, RP-UPLC) | elution from chitin beads with elution buffers with up to 1 M NaCl ([3]; elution buffers 10 mM Tris, 1 mM EDTA, 0.1% Tween 20, pH 8.0 with 300 mM, 500 mM, 700 mM, 1 M NaCl) | time for elution from chitin beads in acidic conditions at high temperature ([3]; legend of Figure S2, acidic conditions at high temperature) | remaining at 6 h [4] | peptide remained intact after heating ([1]; 40 μg in water, 100 °C for 1 h, area under the curve of RP-UPLC chromatograms) | susceptibility (crescent-/arc-shaped inhibition zones) [5] | susceptibility (crescent-/arc-shaped inhibition zones) [6]
RLYRRGRLYRRNHV [RV-14, linear peptide synthesized in the authors' laboratory, control in the thermal stability assay, reference compound] | More than 50% |  |  |  |  |  |  |  |  | 
[pGlu]NCGRQAGNRACANQLCCSQYGFCGSTSEYCSRANGCQSNCRG (disulfide 3-18, 12-24, 17-31, 37-41) [mO1] |  | > 95% | No significant cytotoxic effect | 1 h | could not be eluted | 30 min | > 95% | more than 95% | susceptible | susceptible

From article PMC5374622, “Morintides: cargo-free chitin-binding peptides from Moringa oleifera” (BMC Plant Biology, 2017)
